Values joined by “and” are separate entries in the source; they are usually repeats but may differ in a detail not shown here. Identical values can stand only once. Like-named read-outs stand apart in the source and are kept apart here.
Legend:
Type in all cases: cell-based
[1] = system: IL-1β-stimulated NO production in bovine chondrocyte pellets / ARC tissues; experiment: Chondrocyte pellet / ARC culture model: total nitrite and nitrate assay; conditions: for effect on IL-1β-stimulated NO production (in words): chondrocyte pellet / ARC model
From the text: (§1) Calf articular cartilage was obtained from the knee joints of eight to twelve month old animals and was processed within twenty-four hours after sacrifice. After removal of muscle and ligament, the cartilage was kept moist using phosphate buffer solution (PBS) to prevent tissue dehydration, and was aseptically peeled off from subchondral bone with a scalpel, and the cartilage pieces were further minced into smaller pieces (˜0.3-0.5×˜0.2-0.5 cm cubes). […] Chondrocytes were then enzymatically isolated from the tissue by incubation for overnight at 37° C. with gentle agitation in 0.2% collagenase in Dulbecco's modified eagle media (DMEM). After removal of tissue debris by filtration through cell strainer and the residual collagenase by 3× wash in PBS, cells were finally resuspended at a density of 2.5×10^6 cells/ml in chondrocyte medium. A 1 ml aliquot of the cell suspension was dispensed into either a 15 ml Falcon centrifuge tube or a 96 deep-well plate and centrifuged at 2000×g for five minutes. The chondrocyte pellets were incubated at 37° C. in a humidified atmosphere of 5% CO2 for two to three weeks with a medium change every other day.
(§2) As an alternative to using calf articular cartilage, a commercial Aliginate Recovered Chondrocytes (ARC) system was also used (Articular Engineering, LLC (Northbrook, Ill.)). Use of the commercial system cut down on labor and time in producing chondrocyte pellet. This system produced cartilaginous tissue in vitro using bovine chondrocytes. The first step consisted of culturing chondrocytes in alginate under conditions optimal for the formation of a cell-associated matrix (CM). The second step allowed these cells with their CM, after recovery, to rapidly form and become integrated into a solid mass of cartilage on a porous insert within two weeks.
(§3) Chondrocyte pellets were washed once with 1 ml of Chondrocyte Stimulation Medium and equilibrated in the same medium at room temperature for fifteen to thirty minutes. Compounds were dissolved in H2O, Ethanol or dimethyl sulfoxide (DMSO) (10^−2 M) according to suppliers' instructions and further diluted with Chondrocyte Stimulation Medium to the required concentrations. DMSO concentrations in the culture media should not exceed 1%; this concentration of DMSO has no effect on cartilage proteoglycan metabolism in response to cytokines.
(§4) The pellets were first treated with compounds at desired concentrations at 37° C. for one hour and then incubated for three to five days in the absence or presence of 10 ng/ml of IL-1β. At the end of the incubation, media and pellets were harvested and frozen for further analysis. Pellets were also fixed as needed in 4% (w/v) paraformaldehyde in PBS for histology analysis.
Nitrate/Nitrite levels were measured using the Griess reaction (Green L. C. et al., “Analysis of Nitrate, Nitrite, and [15N]nitrate in Biological Fluids,” Anal. Biochem. 126: 131-138 (1982)) with a Nitrate/Nitrite Colorimetric Assay Kit (Cayman Chemicals), the contents of which are incorporated herein by reference. The assay involved a simple two-step process. The first step involved conversion of nitrate in 50 μl of culture medium to nitrite utilizing nitrate reductase in a reaction volume of 100 μl at room temperature for two hours. The second step involved the addition of 50 μl of both Griess Reagent 1 and 2, which converted nitrite into a deep purple azo compound in ten minutes. Photometric measurement of the absorbance at 540 or 550 nm due to this azo chromophore accurately determined nitrite concentration. This assay kit cannot be used for RPMI (Roswell Park Memorial Institute) derived tissue culture medium due to interference with the colorimetric reaction.
(§5) To characterize the relative efficacies among different p38 MAP kinase inhibitors, dose-response curves were generated for both PGE2 and NO assays. […] After one hour of treatment, ARCs were stimulated with or without 7.5 ng/ml IL-1β and continued to incubate for five days before assay. […]

[2] = system: IL-1β-stimulated PGE2 synthesis in bovine chondrocyte pellets / ARC tissues; experiment: Chondrocyte pellet / ARC culture model: Prostaglandin E2 assay; conditions: for PGE2 synthesis (in words): diacerein at 5.4 μM, rhein at 0.35 μM, 10 ng/ml IL-1β; for effect on IL-1β-stimulated PGE2 synthesis (in words): chondrocyte pellet / ARC model; for maximum inhibition of PGE2: bovine ARC tissues, IL-1β
From the text: as §1, §2, §3, §4
Prostaglandin E2 (PGE2) was measured with a STAT-Prostaglandin E2 EIA ELISA kit (Cayman Biochemicals). This assay is based on the competition between PGE2 from 50 μl samples and a PGE2-alkaline phosphatase conjugate for a limited amount of PGE2 monoclonal antibody in a reaction volume of 150 μl at room temperature for one hour. The antibody-PGE2 complex bound to a goat polyclonal anti-mouse IgG that had been previously attached to the well. After washing to remove any unbound reagents, para-nitrophenyl phosphate (pNPP) was added to the well. The product of this enzymatic reaction absorbs strongly at 412 nm. Because of the large range in response to IL-1β and other cytokines, PGE2 values were converted to log scale prior to doing t-tests.
as §5, with “assay. The IL-1β-stimulated PGE2 synthesis or NO production was first calculated by subtraction of PGE2/NO levels in the absence of IL-1β from that in the presence of IL-1β.” for “assay.”

chondrocytes = system: chondrocytes
Experimental: The LDH activity was determined calorimetrically in an enzymatic test based on the conversion of lactic acid to pyruvate in the presence of chromagenic substrate tetrazolium salt INT that was reduced to formazan.

[3] = Bos taurus, Chondrocyte, Table 3B, read-out: PGE2 Inhibition, Pellet Assay, IC50
[4] = Bos taurus, Chondrocyte, 120 h, bovine ARCs, 7.5 ng/ml IL-1β, five days, sigmoidal dose-response fit, read-out: NO, IC50
[5] = chondrocyte pellet / ARC model, within the tested concentrations
[6] = Bos taurus, Chondrocyte, 120 h, bovine ARCs, 7.5 ng/ml IL-1β, five days, sigmoidal dose-response fit, read-out: PGE2, IC50
[7] = bovine ARCs, 7.5 ng/ml IL-1β, five days, sigmoidal dose-response fit, read-out: NO, IC50
[8] = bovine ARCs, 7.5 ng/ml IL-1β, five days, sigmoidal dose-response fit, read-out: PGE2, IC50
[9] = Bos taurus, Chondrocyte, at 0.5 μM

COc1ccc(-n2nc(CCC(=O)N(C)O)cc2-c2ccc(Cl)cc2)cc1 [Tepoxalin, reference compound] showed an inhibition at 10 µM ([1]; Bos taurus, Chondrocyte) of 50% and an IC50 [2, 3] of 3280 nM.
With Cc1ccc(C(=O)c2ccc(CC(=O)O)n2C)cc1 [Tolmetin, reference compound] the “NO Inhibition, Pellet Assay (in words)” value ([1]; Table 3B) was “No effect” and the IC50 [2, 3] was 673 nM.
O=C(O)c1cc(O)c2c(c1)C(=O)c1cccc(O)c1C2=O [Rhein, reference compound] was tested, and the “cytotoxicity to chondrocytes, LDH (in words)” value (from here on “cytotoxicity to chondrocytes”) (chondrocytes) was “higher toxicity” and the “PGE2 synthesis (in words)” value ([2]; five days) was “no effect”.
For OCCC#Cc1nc(-c2ccc(F)cc2)c(-c2ccncc2)n1CCCc1ccccc1 [JNJ 3026582 (RWJ 67657), 4-[4-(4-fluorophenyl)-1-(3-phenylpropyl)-5-(4-pyridinyl)-1H-imidazol-2-yl]-3-butyn-1-ol], the IC50 [1, 4] was 119 nM, the IC50 ([1]; Bos taurus, Chondrocyte, Table 3B, read-out: NO Inhibition, Pellet Assay, IC50) was 119 nM and the “effect on IL-1β-stimulated NO production (in words)” value [1] was “inhibited”. For the same compound, the “cytotoxicity to chondrocytes” value (chondrocytes; [5]) was “little cytoxicity”, the IC50 [2, 6] was 421 nM and the IC50 [2, 3] was 421 nM. For the same compound, the “effect on IL-1β-stimulated PGE2 synthesis (in words)” value [2] was “inhibited”.
In the case of C[C@@H]1CN(Cc2ccc(F)cc2)[C@@H](C)CN1C(=O)c1cc2c(C(=O)C(=O)N(C)C)cn(C)c2cc1Cl [SCIO-469 (SD 469)], the IC50 [1, 4] is reported as 18 nM, the IC50 ([1]; Bos taurus, Chondrocyte, Table 3B, unit inferred, read-out: NO Inhibition, Pellet Assay, IC50) is reported as 107 nM and the IC50 [1, 7] is reported as 18 nM. The “increase of LDH level” value (chondrocytes; bovine, 100000 nM) was 121%, the IC50 [2, 6] was 107 nM and the IC50 [2, 3] was 18 nM. For the same compound, the “maximum inhibition of PGE2” value [2] was 62% and the IC50 [2, 8] was 107 nM.
CC(=O)Oc1cccc2c1C(=O)c1c(OC(C)=O)cc(C(=O)O)cc1C2=O [Diacerein, reference compound] was tested, and the “NO production (in words)” value ([1]; diacerein at 5.4 μM, rhein at 0.35 μM, 10 ng/ml IL-1β, five days) was “significantly inhibited”, the “cytotoxicity to chondrocytes” value (chondrocytes) was “cytotoxicity at higher concentrations” and the “PGE2 synthesis (in words)” value ([2]; five days) was “no effect”.
For CO[C@H]1C[C@@H]2CC[C@@H](C)[C@@](O)(O2)C(=O)C(=O)N2CCCC[C@H]2C(=O)O[C@H]([C@H](C)C[C@@H]2CC[C@@H](O)[C@H](OC)C2)CC(=O)[C@H](C)/C=C(\C)[C@@H](O)[C@@H](OC)C(=O)[C@H](C)C[C@H](C)/C=C/C=C/C=C/1C [Rapamycin, reference compound], the inhibition at 10 µM ([1]; Bos taurus, Chondrocyte) was 30%, the “cytotoxicity to chondrocytes” value (chondrocytes) was “little toxicity” and the inhibition at 10 µM ([2]; Bos taurus, Chondrocyte, at 10 μM) was 47%.
In the case of C[C@H](Nc1nccc(-c2c(-c3ccc(F)cc3)nc3nc(N)ccn23)n1)c1ccccc1 [JNJ 7583979 (RWJ 351958)], the inhibition at 0.5 µM [1, 9] is reported as 50%, the “effect on IL-1β-stimulated NO production (in words)” value [1] is reported as “significantly inhibited” and the “cytotoxicity to chondrocytes” value (chondrocytes; [5]) is reported as “little cytoxicity”. The inhibition at 0.5 µM [2, 9] was 100% and the “effect on IL-1β-stimulated PGE2 synthesis (in words)” value [2] was “significantly inhibited”.
For C[C@@H]1CN(Cc2ccc(F)cc2)[C@@H](C)CN1C(=O)c1cc2cc(C(=O)C(=O)N(C)C)[nH]c2cc1Cl [SCIO-282 (SD 282)], the IC50 [1, 7] was 74 nM and 74.4 nM, the “effect on IL-1β-stimulated NO production (in words)” value [1] was “inhibited” and the “cytotoxicity to chondrocytes” value (chondrocytes; [5]) was “little cytoxicity”. For the same compound, the “maximum inhibition of PGE2” value [2] was 96%, the IC50 [2, 8] was 583 nM and 582 nM and the “effect on IL-1β-stimulated PGE2 synthesis (in words)” value [2] was “inhibited”.
Work on CC(C(=O)O)c1ccc(C(=O)c2cccs2)cc1 (stereo not shown) [Suprofen, reference compound] yielded an inhibition at 10 µM ([1]; Bos taurus, Chondrocyte) of 20% and an IC50 [2, 3] of 0.812 nM.
In the case of CC(=O)N1CCN(c2c(-c3ccncc3)c(-c3ccc(F)cc3)c(C#N)n2C)CC1 [JNJ 17089540 (RWJ 669307)], the IC50 ([1]; Table 3B, read-out: NO Inhibition, Pellet Assay, IC50) is reported as 4900 nM, the IC50 [1, 7] is reported as 4920 nM and the “effect on IL-1β-stimulated NO production (in words)” value [1] is reported as “weaker inhibitor”. For the same compound, the “cytotoxicity to chondrocytes” value (chondrocytes) was “little cytoxicity”, the IC50 ([2]; Table 3B, read-out: PGE2 Inhibition, Pellet Assay, IC50) was 29600 nM and the IC50 [2, 8] was 29600 nM.

Source: patent US20090162351A1, “Transdiscal administration of inhibitors of p38 MAP kinase” (DePuy Spine, Inc., priority 2007, published 2009)
